Here are results for one compound from US9895338B1, “Cobalt-polypyridyl complex for treatment of cancer, a pharmaceutical composition and a kit comprising it” (Macau University of Science and Technology, priority 2016, dated 2018).

Usually IC50 stands for the concentration at which inhibition is half-maximal.

Read-outs that look alike come from different tables or passages of the source.

For test [1], the system named is Taxol-sensitive HCT8 cancer cells. The experiment in a line: MTT cytotoxicity, taxol-sensitive HCT8. The conditions noted are these: 72 h. Type of test: cell-based. The procedure:
(§1) All prepared cobalt-polypyridyl complexes were dissolved in DMSO at a final concentration of 50 mmol/L and stored at −20° C. before use. Cytotoxicity was assessed by using the 3-(4,5-dimethylthiazol-2-yl)-2,5-diphenyltetrazolium bromide (MTT) (5.0 mg/ml) assay as previously described (Wong, V. K. et al., Cell Death Dis, 2013, 4, e720). Briefly, 4×10^3 cells per well were seeded in 96-well plates before drug treatments. After overnight culture, the cells were then exposed to different concentrations of selected compounds (0.039-100 μmol/L) for 72 h. Cells without drug treatment were used as control. Subsequently, MTT (10 μL) solution was added to each well and incubated at 37° C. for 4 h followed by the addition of 100 μL solubilization buffer (10% SDS in 0.01 mol/L HCl) and overnight incubation. A570 nm was then determined in each well on the next day. The percentage of cell viability was calculated using the following formula: Cell viability (%)=Atreated/Acontrol×100. Data were obtained from three independent experiments.

Test [2] concerns OV2008/C13 cervical cancer cells. Briefly: MTT cytotoxicity, OV2008/C13 (cisplatin-resistant). Type of test: cell-based. The procedure:
as §1
(§2) Cisplatin-sensitive or -resistant A2780, OV2008 and C13 cancer cells were provided by Prof. Benjamin Tsang (Department of Obstetrics and Gynecology and Department of Cellular and Molecular Medicine, University of Ottawa, Canada). HCT116 p53^+/+ and p53^−/− isogenic human colon cancer cells were provided by Professor Bert Vogelstein (Ludwig Center at Johns Hopkins, Howard Hughes Medical Institute, USA). All media were supplemented with 10% fetal bovine serum and the antibiotics penicillin (50 U/ml) and streptomycin (50 μg/ml; Invitrogen, Paisley, Scotland, UK). All cell cultures were incubated at 37° C. in a 5% humidified CO2 incubator.

Test [3] concerns cisplatin-sensitive A2780 ovarian cancer cells. Briefly: MTT cytotoxicity, cisplatin-sensitive A2780. The class given is cell-based. The conditions noted are these: 72 h. The procedure: as §1, §2
In the next test the test system is HeLa cancer cells. The procedure:
For cell cycle analysis, the cells were harvested and washed with ice-cold phosphate-buffered saline (PBS), and then suspended and permeabilized with 70% ethanol for overnight at 4° C. For detecting DNA content and cell cycle, cells were incubated with the freshly prepared propidium iodide (PI) staining buffer for 30 min at room temperature in dark. Fractions of the cells in G1, S, and G2/M phase were analyzed using Modfit software 3.1.
To investigate whether the cobalt-polypyridyl complexes could suppress cancer cell growth by arresting cell cycle progression, HeLa cancer cells were treated with different concentrations of the cobalt-polypyridyl complex of Formula (IV) (with PF6^− as counterion).

The next test deals with Hep 3B (liver cancer). The experiment in a line: MTT cytotoxicity assay, Hep3B. Type of test: cell-based. The conditions noted are these: 72 h. The procedure:
as §1, with “experiments. Cells include HeLa cells (cervical cancer), MCF-7 (breast cancer), H1299, H1975, A549 and LLC-1 (lung cancer), HepG2 and Hep3B (liver cancer) and LO2 (normal human hepatocytes).” for “experiments.”

Test [4] concerns OV2008 cervical cancer cells. The experiment in a line: MTT cytotoxicity, OV2008 (cisplatin-sensitive). The conditions noted are these: 72 h. The class given is cell-based. As for the experimental part: as §1, §2
In test [5] the test system is cisplatin-sensitive SGC-7901 gastric cancer cells. The experiment in a line: MTT cytotoxicity, cisplatin-sensitive SGC-7901. The class given is cell-based. The conditions noted are these: SGC-7901, MTT, 72 h. The procedure: as §1
In test [6] the test system is HCT116 p53^+/+ colon cancer cells. Briefly: MTT cytotoxicity, HCT116 p53+/+. The class given is cell-based, human. The conditions noted are these: 72 h. The procedure: as §1, §2
For test [7], the system named is cisplatin-resistant SGC-7901 gastric cancer cells. Briefly: MTT cytotoxicity, cisplatin-resistant SGC-7901. Type of test: cell-based. As for the experimental part:
as §1
All cells were obtained from the American Type Culture Collection (Rockville, Md., USA) unless otherwise specified. Immortalized wild-type and Atg7-deficient mouse embryonic fibroblasts (MEFs) were provided by Professor Masaaki Komatsu (Juntendo University, School of Medicine, Japan). Taxol-resistant types of A549, MCF-7, HCT-8 cancer cells, cisplatin-resistant SGC7901 cancer cells were purchased from KeyGEN BioTECH, China.

Another test concerns LLC-1 (lung cancer). The experiment in a line: MTT cytotoxicity assay, LLC-1. The class given is cell-based. The conditions noted are these: LLC-1, MTT, 72 h. As for the experimental part:
as §1, with “experiments. Cells include HeLa cells (cervical cancer), MCF-7 (breast cancer), H1299, H1975, A549 and LLC-1 (lung cancer), HepG2 and Hep3B (liver cancer) and LO2 (normal human hepatocytes).” for “experiments.”
(In general: Formazan colour is commonly taken as a measure of viable cells.)

The subject of a further test is H1299 (lung cancer). Briefly: MTT cytotoxicity assay, H1299. Type of test: cell-based, human. The conditions noted are these: 72 h. The procedure: as §1, with “experiments. Cells include HeLa cells (cervical cancer), MCF-7 (breast cancer), H1299, H1975, A549 and LLC-1 (lung cancer), HepG2 and Hep3B (liver cancer) and LO2 (normal human hepatocytes).” for “experiments.”

Test [8] concerns Taxol-sensitive A549 cancer cells. Briefly: MTT cytotoxicity, taxol-sensitive A549. The class given is cell-based. The conditions noted are these: 72 h. The procedure:
as §1

Test [9] concerns HeLa cells (cervical cancer). Briefly: MTT cytotoxicity assay, HeLa. Type of test: cell-based. The conditions noted are these: 72 h. As for the experimental part:
as §1, with “experiments. Cells include HeLa cells (cervical cancer), MCF-7 (breast cancer), H1299, H1975, A549 and LLC-1 (lung cancer), HepG2 and Hep3B (liver cancer) and LO2 (normal human hepatocytes).” for “experiments.”

Test [10] relates to LO2 (normal human hepatocytes). Briefly: MTT cytotoxicity assay, LO2. Type of test: cell-based. The conditions noted are these: 72 h. As for the experimental part:
as §1, with “experiments. Cells include HeLa cells (cervical cancer), MCF-7 (breast cancer), H1299, H1975, A549 and LLC-1 (lung cancer), HepG2 and Hep3B (liver cancer) and LO2 (normal human hepatocytes).” for “experiments.”

Test [11] has as its system LC3-II protein conversion. Briefly: Western blotting of LC3-I to LC3-II conversion. The class given is cell-based. The conditions noted are these: Western blot; complex at 10 μM and 20 μM. The procedure: After drug treatment, adherent and floating cells were lysed with RIPA lysis buffer. Protein concentrations were determined using the Bio-Rad protein assay (Bio-Rad Laboratories, Inc., Hercules, Calif., USA). The cell lysates of samples were subjected to electrophoresis on SDS polyacrylamide gels and transferred to Hybond enhanced chemiluminescence nitrocellulose membranes (Amersham Biosciences, Piscataway, N.J.), which were then blocked with 5% non-fat dry milk protein for 1 h. Membranes were then incubated with the indicated primary antibodies overnight at 4° C. The binding of the antibody was visualized by peroxidase-coupled secondary antibody using the ECL Western Blotting Detection Reagents (Invitrogen, Paisley, Scotland, UK). Band intensities were quantified by using the software ImageJ (NIH, Bethesda, Md., USA).
For orientation: In western blotting, separated proteins are transferred to a membrane and probed.

The subject of a further test is A549 (lung cancer). The experiment in a line: MTT cytotoxicity assay, A549. The class given is cell-based. The conditions noted are these: 72 h. As for the experimental part: as §1, with “experiments. Cells include HeLa cells (cervical cancer), MCF-7 (breast cancer), H1299, H1975, A549 and LLC-1 (lung cancer), HepG2 and Hep3B (liver cancer) and LO2 (normal human hepatocytes).” for “experiments.”

On to `Cc1ccnc(-c2cc(C)ccn2)c1.Cc1ccnc(-c2cc(C)ccn2)c1.Cc1ccnc(-c2cc(C)ccn2)c1.F[P-](F)(F)(F)(F)F.F[P-](F)(F)(F)(F)F.F[P-](F)(F)(F)(F)F.[Co+3]` [complex (IV), [Co^III(4,4′-Me2-Bpy)3.](PF6)3], for which the IC50 is 3.39 µM in test [1]; 7.59 µM in [2] (OV2008/C13, MTT, 72 h); 12.3 µM in test [3]; 3.7 µM with Hep 3B (liver cancer); 7.62 µM in test [4]; 11.1 µM in [5]. The IC50 in [6] was determined as 15.4 µM; in test [7] (SGC-7901, MTT, 72 h), 12.6 µM; in the test with LLC-1 (lung cancer), 3.39 µM; in the test with H1299 (lung cancer) it was 2.84 µM; in test [8], 11.5 µM; in [9], 11.9 µM. Also, the IC50 in test [10] came to 13.2 µM; with A549 (lung cancer), 7.86 µM. In addition, the “Resistant Factor” value is 1.0 in test [2] (OV2008/C13 over OV2008) and 1.14 in [7] (SGC-7901, cisplatin-resistant over cisplatin-sensitive). Further, the “effect on cell cycle progression” value in the test on HeLa cancer cells (high concentration) is on record as “arrest HeLa cancer cell in S-phase”; in the test on HeLa cancer cells (low concentration) it was “negligible effect on cell cycle progression”. Besides, in [11], the “LC3-I to LC3-II protein conversion” value is recorded as “dose-dependently increased the LC3-II protein conversion”.
